According to US10660876B2, “Amino compounds for treatment of medical disorders” (Achillion Pharmaceuticals, Inc., priority 2015, dated 2020):
pIC50: −log10 of the molar value.

Target: Human Factor D (Homo sapiens (Human), UniProt P00746)
Assay: Human Factor D Assay
Type: biochemical
Details: Table 1; Factor D purified from human serum, 80 nM, substrate Z-L-Lys-SBzl; read-out: IC50
Experimental: Example 12. Human Factor D Assay
Human Factor D (purified from human serum, Complement Technology, Inc.) at 80 nM final concentration is incubated with test compound at various concentrations for 5 minutes at room temperature in 50 mM Tris, 1M NaCl, pH 7.5. A synthetic substrate Z-L-Lys-SBzl and DTNB (Ellman's reagent) are added to final concentrations of 100 μM each. Absorbance at 405 nm (A405) is recorded at 30 second intervals for 30 minutes using a microplate spectrophotometer. IC50 values are calculated by nonlinear regression of complement Factor D reaction rates as a function of test compound concentration.

Sequence of Human Factor D (P00746 26-253): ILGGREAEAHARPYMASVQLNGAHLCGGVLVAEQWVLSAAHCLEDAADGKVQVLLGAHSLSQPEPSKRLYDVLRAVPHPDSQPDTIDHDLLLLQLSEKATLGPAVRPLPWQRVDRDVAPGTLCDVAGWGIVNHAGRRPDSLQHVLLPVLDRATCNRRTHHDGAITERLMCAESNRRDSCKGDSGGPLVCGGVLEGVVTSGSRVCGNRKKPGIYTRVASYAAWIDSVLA

Question: CC(=O)c1cn(CC(=O)N2C[C@H](F)C[C@H]2C(=O)Nc2cncc(Br)n2)c2ccc(Nc3cncnc3)cc12 [Compound 47, (2S,4R)-1-(2-(3-acetyl-5-(pyrimidin-5-ylamino)-1H-indol-1-yl)acetyl)-N-(6-bromopyrazin-2-yl)-4-fluoropyrrolidine-2-carboxamide] was tested. Which pIC50 did it give?
Answer: Its pIC50 is greater than 6.00.

Question: With CC(=O)c1cn(CC(=O)N2C[C@H](F)C[C@H]2C(=O)N[C@@H](C)c2oc3ccc(F)cc3c2C)c2ccc(Nc3cncnc3)cc12 [Compound 75, (2S,4R)-1-(2-(3-acetyl-5-(pyrimidin-5-ylamino)-1H-indol-1-yl)acetyl)-4-fluoro-N-((S)-1-(5-fluoro-3-methylbenzofuran-2-yl)ethyl) pyrrolidine-2-carboxamide] as the compound, how does the pIC50 read?
Answer: The pIC50 was greater than 6.00.

Question: How did the pIC50 turn out when CC(=O)c1cn(CC(=O)N2C[C@H](F)C[C@H]2C(=O)Nc2ccc3cn[nH]c3c2)c2ccc(Nc3cncnc3)cc12 [Compound 25, (2S,4R)-1-(2-(3-acetyl-5-(pyrimidin-5-ylamino)-1H-indol-1-yl)acetyl)-4-fluoro-N-(1H-indazol-6-yl)pyrrolidine-2-carboxamide] was run?
Answer: Its pIC50 is greater than 6.00.

Question: With CC(=O)c1cn(CC(=O)N2C[C@H](F)C[C@H]2C(=O)Nc2cccc3c2CN(c2ccccn2)C3)c2ccc(Nc3cncnc3)cc12 [Compound 27, (2S,4R)-1-(2-(3-acetyl-5-(pyrimidin-5-ylamino)-1H-indol-1-yl)acetyl)-4-fluoro-N-(2-(pyridin-2-yl)isoindolin-4-yl)pyrrolidine-2-carboxamide] as the compound, how does the pIC50 read?
Answer: The pIC50 was 5.00 to 6.00.

Question: With CC(=O)c1cn(CC(=O)N2C[C@H](F)C[C@H]2C(=O)Nc2nccc(Cl)n2)c2ccc(Nc3cncnc3)cc12 [Compound 73, (2S,4R)-1-(2-(3-acetyl-5-(pyrimidin-5-ylamino)-1H-indol-1-yl)acetyl)-N-(4-chloropyrimidin-2-yl)-4-fluoropyrrolidine-2-carboxamide] as the compound, how does the pIC50 read?
Answer: Its pIC50 is greater than 6.00.

Question: With CC(=O)c1cn(CC(=O)N2C[C@H](F)C[C@H]2C(=O)Nc2cc3c(cc2F)OC(F)(F)O3)c2ccc(Nc3cncnc3)cc12 [Compound 35, (2S,4R)-1-(2-(3-acetyl-5-(pyrimidin-5-ylamino)-1H-indol-1-yl)acetyl)-4-fluoro-N-(2,2,6-trifluorobenzo[d] [1,3]dioxol-5-yl)pyrrolidine-2-carboxamide] as the compound, how does the pIC50 read?
Answer: The pIC50 was greater than 6.00.

Question: With CCN1Cc2ccc(NC(=O)[C@@H]3C[C@@H](F)CN3C(=O)Cn3cc(C(C)=O)c4cc(Nc5cncnc5)ccc43)cc2C1=O [Compound 23, (2S,4R)-1-(2-(3-acetyl-5-(pyrimidin-5-ylamino)-1H-indol-1-yl)acetyl)-N-(2-ethyl-3-oxoisoindolin-5-yl)-4-fluoropyrrolidine-2-carboxamide] as the compound, how does the pIC50 read?
Answer: Its pIC50 is greater than 6.00.

Question: How did the pIC50 turn out when CC(=O)c1cn(CC(=O)N2C[C@H](F)C[C@H]2C(=O)Nc2nn(C)c3c2CC(C)C(=O)N3)c2ccc(Nc3cncnc3)cc12 (stereo partly shown) [Compound 67, (2S 4R)-1-(2-(3-acetyl-5-(pyrimidin-5-ylamino)-1H-indol-1-yl)acetyl)-N-(1,5-dimethyl-6-oxo-4,5,6,7-tetrahydro-1H-pyrazolo[3,4-b]pyridin-3-yl)-4-fluoropyrrolidine-2-carboxamide] was run?
Answer: The pIC50 was 5.00 to 6.00.

Question: With CC(=O)c1cn(CC(=O)N2C[C@H](F)C[C@H]2C(=O)Nc2nc(-c3ccccc3Cl)ns2)c2ccc(Nc3cncnc3)cc12 [Compound 29, (2S,4R)-1-(2-(3-acetyl-5-(pyrimidin-5-ylamino)-1H-indol-1-yl)acetyl)-N-(3-(2-chlorophenyl)-1,2,4-thiadiazol-5-yl)-4-fluoropyrrolidine-2-carboxamide] as the compound, how does the pIC50 read?
Answer: The pIC50 was greater than 6.00.

Question: With CC(=O)c1cn(CC(=O)N2C[C@H](F)C[C@H]2C(=O)NC2CCN(c3ccn(C)n3)C2=O)c2ccc(Nc3cncnc3)cc12 (stereo partly drawn) [Compound 64, (2S,4R)-1-(2-(3-acetyl-5-(pyrimidin-5-ylamino)-1H-indol-1-yl)acetyl)-4-fluoro-N-(1-(1-methyl-1H-pyrazol-3-yl)-2-oxopyrrolidin-3-yl)pyrrolidine-2-carboxamide] as the compound, how does the pIC50 read?
Answer: Its pIC50 is greater than 6.00.

Question: How did the pIC50 turn out when NC(=O)c1nn(CC(=O)N2C[C@H](F)C[C@H]2C(=O)Nc2cccc(Cl)n2)c2ccc(Nc3cccnn3)cc12 [Compound 11, 1-(2-((2S,4R)-2-(6-chloropyridin-2-ylcarbamoyl)-4-fluoropyrrolidin-1-yl)-2-oxoethyl)-5-(pyridazin-3-ylamino)-1H-indazole-3-carboxamide] was run?
Answer: The pIC50 was greater than 6.00.

Question: How did the pIC50 turn out when NC(=O)c1nn(CC(=O)N2C[C@H](F)C[C@H]2C(=O)Nc2cccc(Cl)n2)c2ccc(Nc3cncnc3)cc12 [Compound 12, 1-(2-((2S,4R)-2-(6-chloropyridin-2-ylcarbamoyl)-4-fluoropyrrolidin-1-yl)-2-oxoethyl)-5-(pyrimidin-5-ylamino)-1H-indazole-3-carboxamide] was run?
Answer: The pIC50 was greater than 6.00.

Question: CC(=O)c1cn(CC(=O)N2C[C@H](F)C[C@H]2C(=O)NCc2ccncc2)c2ccc(Nc3cncnc3)cc12 [Compound 59, (2S,4R)-1-(2-(3-acetyl-5-(pyrimidin-5-ylamino)-1H-indol-1-yl)acetyl)-4-fluoro-N-(pyridin-4-ylmethyl) pyrrolidine-2-carboxamide] was tested. Which pIC50 did it give?
Answer: The pIC50 was greater than 6.00.

Question: With CC(=O)c1cn(CC(=O)N2C[C@H](F)C[C@H]2C(=O)Nc2cc(O)ccn2)c2ccc(Nc3cncnc3)cc12 [Compound 72, (2S,4R)-1-(2-(3-acetyl-5-(pyrimidin-5-ylamino)-1H-indol-1-yl)acetyl)-4-fluoro-N-(4-hydroxypyridin-2-yl)pyrrolidine-2-carboxamide] as the compound, how does the pIC50 read?
Answer: Its pIC50 is greater than 6.00.

Question: With N#Cc1cnc(Nc2ccc3c(c2)c(C(N)=O)nn3CC(=O)N2C[C@H](F)C[C@H]2C(=O)Nc2cccc(-c3ccccc3Cl)c2F)nc1 [Compound 13, 1-(2-((2S,4R)-2-(2′-chloro-2-fluorobiphenyl-3-ylcarbamoyl)-4-fluoropyrrolidin-1-yl)-2-oxoethyl)-5-(5-cyanopyrimidin-2-ylamino)-1H-indazole-3-carboxamide] as the compound, how does the pIC50 read?
Answer: The pIC50 was greater than 6.00.

Question: How did the pIC50 turn out when CC(=O)c1cn(CC(=O)N2C[C@H](F)C[C@H]2C(=O)Nc2noc(-c3ccccc3Cl)n2)c2ccc(Nc3cncnc3)cc12 [Compound 62, (2S,4R)-1-(2-(3-acetyl-5-(pyrimidin-5-ylamino)-1H-indol-1-yl)acetyl)-N-(5-(2-chlorophenyl)-1,2,4-oxadiazol-3-yl)-4-fluoropyrrolidine-2-carboxamide] was run?
Answer: Its pIC50 is greater than 6.00.

Same assay, conditions: Table 3; Factor D purified from human serum, 80 nM, substrate Z-L-Lys-SBzl; read-out: IC50 (Stars)

Question: With CC(=O)c1cn(CC(=O)N2C[C@H](F)C[C@H]2C(=O)NCCc2ccccc2)c2ccc(Nc3cccnc3)cc12 [Compound 148, (2S,4R)-1-(2-(3-acetyl-5-(pyridin-3-ylamino)-1H-indol-1-yl)acetyl)-4-fluoro-N-phenethylpyrrolidin-2-carboxamide] as the compound, how does the pIC50 read?
Answer: The pIC50 was greater than 6.00.

Question: How did the pIC50 turn out when CC(=O)c1cn(CC(=O)N2C[C@H](F)C[C@H]2C(=O)NCCc2ccccc2)c2ccc(Nc3cncnc3)cc12 [Compound 154, (2S,4R)-1-(2-(3-acetyl-5-(pyrimidin-5-ylamino)-1H-indol-1-yl)acetyl)-4-fluoro-N-phenethylpyrrolidin-2-carboxamide] was run?
Answer: Its pIC50 is greater than 6.00.

Question: CC(=O)c1cn(CC(=O)N2C[C@H](F)C[C@H]2C(=O)NCCCc2ccccc2)c2ccc(Nc3cccnc3)cc12 [Compound 150, (2S,4R)-1-(2-(3-acetyl-5-(pyridin-3-ylamino)-1H-indol-1-yl)acetyl)-4-fluoro-N-(3-phenylpropyl) pyrrolidine-2-carboxamide] was tested. Which pIC50 did it give?
Answer: Its pIC50 is greater than 6.00.
